Test results published in the supplement of paper PMC10307832.

Experiments:
Experiment in all cases: relative viability (nuclei count vs DMSO), 5 days (fraction); higher = more cells survive
Dabrafenib + Trametinib = compound: CC(C)(C)c1nc(-c2cccc(NS(=O)(=O)c3c(F)cccc3F)c2F)c(-c2ccnc(N)n2)s1 [Dabrafenib] + CC(=O)Nc1cccc(-n2c(=O)n(C3CC3)c(=O)c3c(Nc4ccc(I)cc4F)n(C)c(=O)c(C)c32)c1 [Trametinib] (partner 0.02 µM)
Method in brief: (§1)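 A single step with final 0.05% Triton X-100, 1% formaldehyde and 1 ug/ml Hoechst fixed the cells and stained nuclei 5 days after treatment. Lung cancer cell lines in 1536-well plates had been treated by pin tool the day after seeding with one drug alone or a fixed anchor-drug dose plus five library-drug doses (not always all listed) in √10 steps, and nuclei were counted on 4× images. Relative viability is the ratio of nuclei in treated wells to nuclei in vehicle wells, taken as the median of duplicate plates.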

Dabrafenib + Phenformin = compound: CC(C)(C)c1nc(-c2cccc(NS(=O)(=O)c3c(F)cccc3F)c2F)c(-c2ccnc(N)n2)s1 [Dabrafenib] + N=C(N)NC(=N)NCCc1ccccc1 [Phenformin] (partner 250 µM)
Method in brief: as §1

Dabrafenib + Decitabine = compound: CC(C)(C)c1nc(-c2cccc(NS(=O)(=O)c3c(F)cccc3F)c2F)c(-c2ccnc(N)n2)s1 [Dabrafenib] + Nc1ncn([C@H]2C[C@H](O)[C@@H](CO)O2)c(=O)n1 [Decitabine] (partner 2 µM)
Method in brief: as §1

VX-702 + Navitoclax = compound: NC(=O)c1ccc(N(C(N)=O)c2c(F)cccc2F)nc1-c1ccc(F)cc1F [VX-702] + CC1(C)CCC(c2ccc(Cl)cc2)=C(CN2CCN(c3ccc(C(=O)NS(=O)(=O)c4ccc(N[C@H](CCN5CCOCC5)CSc5ccccc5)c(S(=O)(=O)C(F)(F)F)c4)cc3)CC2)C1 [Navitoclax] (partner 0.5 µM)
Method in brief: as §1

Cell Line | relative viability (Dabrafenib + Trametinib; first compound 0.003 µM) | relative viability (Dabrafenib + Trametinib; first compound 0.009487 µM) | relative viability (Dabrafenib + Trametinib; first compound 0.03 µM) | relative viability (Dabrafenib + Trametinib; first compound 0.09487 µM) | relative viability (Dabrafenib + Trametinib; first compound 0.3 µM) | relative viability (Dabrafenib + Phenformin; first compound 0.003 µM) | relative viability (Dabrafenib + Phenformin; first compound 0.009487 µM) | relative viability (Dabrafenib + Phenformin; first compound 0.03 µM) | relative viability (Dabrafenib + Phenformin; first compound 0.09487 µM) | relative viability (Dabrafenib + Phenformin; first compound 0.3 µM) | relative viability (Dabrafenib + Decitabine; first compound 0.003 µM) | relative viability (Dabrafenib + Decitabine; first compound 0.009487 µM) | relative viability (Dabrafenib + Decitabine; first compound 0.03 µM) | relative viability (Dabrafenib + Decitabine; first compound 0.09487 µM) | relative viability (Dabrafenib + Decitabine; first compound 0.3 µM) | relative viability (VX-702 + Navitoclax; first compound 0.02 µM) | relative viability (VX-702 + Navitoclax; first compound 0.2 µM) | relative viability (VX-702 + Navitoclax; first compound 0.6325 µM) | relative viability (VX-702 + Navitoclax; first compound 2 µM)
NCI-H2126 | 0.468 | 0.532 | 0.475 | 0.6 | 0.619 | 0.521 | 0.551 | 0.557 | 0.601 | 0.565 | 0.578 | 0.591 | 0.57 | 0.653 | 0.609 | 0.832 | 0.814 | 0.779 | 0.698
NCI-H2170 | 0.908 | 0.982 | 0.842 | 0.839 | 0.919 | 0.4 | 0.367 | 0.385 | 0.384 | 0.421 | 0.47 | 0.472 | 0.423 | 0.42 | 0.36 | 0.625 | 0.372 | 0.665 | 0.607
NCI-H2347 |  | 0.304 | 0.247 | 0.265 | 0.313 |  | 0.461 | 0.229 | 0.382 | 0.352 |  | 0.657 | 0.598 | 0.706 | 0.616 | 0.887 | 0.712 | 0.756 | 0.792
NCI-H2405 |  | 0.46 | 0.409 | 0.475 | 0.523 |  | 0.286 |  | 0.37 | 0.371 |  | 0.742 | 0.529 | 0.692 | 0.574 | 0.813 | 0.773 | 0.89 | 1.2
NCI-H3122 | 0.273 | 0.209 | 0.159 | 0.212 | 0.238 | 0.32 | 0.349 | 0.39 | 0.369 | 0.37 | 0.567 | 0.404 | 0.397 | 0.429 | 0.373 | 1.07 | 1.05 | 1.04 | 1.02
PC-3 [JPC-3] |  | 0.812 | 0.751 | 0.893 | 0.863 | 0.405 | 0.491 | 0.465 | 0.441 | 0.476 |  | 0.865 | 0.872 | 0.812 | 0.804 | 0.756 | 0.846 | 0.844 | 0.853
PC-14 |  | 0.976 | 0.944 | 0.708 | 1 |  | 0.493 | 0.623 | 0.583 | 0.83 | 0.172 | 0.276 | 0.24 | 0.219 | 0.147 | 1.06 | 1.01 | 1.04 | 1.03
RERF-LC-KJ | 0.811 | 0.939 | 0.961 | 0.944 | 1.05 | 0.432 | 0.435 | 0.43 | 0.447 | 0.546 | 0.792 | 0.724 | 0.655 | 0.731 | 0.705 | 1.18 | 1.1 | 0.83 | 0.869
SK-LU-1 |  | 0.437 | 0.329 | 0.488 | 0.456 |  | 0.571 | 0.326 | 0.47 | 0.373 |  | 0.657 | 0.569 | 0.571 | 0.484 | 0.7 | 0.757 | 0.66 | 1.32
SK-MES-1 |  | 0.653 | 0.747 | 0.712 | 0.827 | 0.582 | 0.757 | 0.665 | 0.543 | 0.508 | 0.362 | 0.441 | 0.405 | 0.382 | 0.338 | 1.24 | 1.12 | 1.22 | 1.44
SW 1573 | 0.608 | 0.547 | 0.669 | 0.648 | 0.705 | 0.371 | 0.445 | 0.324 | 0.465 | 0.541 | 0.448 | 0.545 | 0.488 | 0.589 | 0.357 | 0.938 | 0.809 | 0.831 | 0.909
UMC-11 | 0.773 | 0.759 | 0.495 | 0.755 | 0.848 | 0.289 | 0.331 | 0.332 | 0.329 | 0.279 | 0.707 | 0.603 | 0.558 | 0.383 | 0.434 | 0.274 | 0.293 | 0.303 | 0.359
